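Following 48 hours of exposure in 96-well plates, responses at five concentrations were used to interpolate endpoints linearly. GI50 = concentration required for 50% inhibition of growth.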 Active and inactive are the calls of the source. Rule as the data show it: active = GI50 up to about 1.1 µM and inactive = higher.
What was measured:
Experiment in all cases: NCI tumour cell line growth inhibition, 48 h
CCRF-CEM = system: CCRF-CEM
SW-620 = system: SW-620
A549 = system: A549
U-251 = system: U-251
HT-29 = system: HT-29
MCF7 = system: MCF7
SNB-75 = system: SNB-75
NCI/ADR-RES = system: NCI/ADR-RES
RPMI-8226 = system: RPMI-8226
NCI-H226 = system: NCI-H226
M14 = system: M14
OVCAR-4 = system: OVCAR-4
HCT-116 = system: HCT-116
UO-31 = system: UO-31
Malme-3M = system: Malme-3M
RXF 393 = system: RXF 393
HOP-62 = system: HOP-62
K562 = system: K562
SK-MEL-5 = system: SK-MEL-5
KM12 = system: KM12

| Structure (SMILES) | GI50 (CCRF-CEM) | GI50 (SW-620) | GI50 (A549) | GI50 (U-251) | GI50 (HT-29) | GI50 (MCF7) | GI50 (SNB-75) | GI50 (NCI/ADR-RES) | GI50 (RPMI-8226) | GI50 (NCI-H226) | GI50 (M14) | GI50 (OVCAR-4) | GI50 (HCT-116) | GI50 (UO-31) | GI50 (Malme-3M) | GI50 (RXF 393) | GI50 (HOP-62) | GI50 (K562) | GI50 (SK-MEL-5) | GI50 (KM12) |
| --- | --- | --- | --- | --- | --- | --- | --- | --- | --- | --- | --- | --- | --- | --- | --- | --- | --- | --- | --- | --- |
| O=C(O)/C(Cc1ccnc2ccccc12)=N\O | > 100 µM (inactive) | > 100 µM (inactive) | > 100 µM (inactive) | > 100 µM (inactive) | > 100 µM (inactive) | > 100 µM (inactive) | > 100 µM (inactive) | > 100 µM (inactive) | > 100 µM (inactive) | > 100 µM (inactive) | > 100 µM (inactive) | > 100 µM (inactive) | > 100 µM (inactive) | > 100 µM (inactive) | > 100 µM (inactive) | > 100 µM (inactive) | > 100 µM (inactive) | > 100 µM (inactive) | > 100 µM (inactive) | > 100 µM (inactive) |
| CCCCn1c2c(n(CCCC)c1=S)-c1c(n(CCCC)c(=S)n1CCCC)S[Se][Se]S2 | 0.26 µM (active) | 0.778 µM (active) | 19.7 µM (inactive) | 4.37 µM (inactive) | 7.23 µM (inactive) | 6.64 µM (inactive) | 5.13 µM (inactive) | 21.1 µM (inactive) | 2.49 µM (inactive) | 14.6 µM (inactive) | 8.59 µM (inactive) | 0.815 µM (active) | 4.27 µM (inactive) | 2.5 µM (inactive) | 0.625 µM (active) | 3.96 µM (inactive) | 8.83 µM (inactive) | 1.63 µM (inactive) | 5.85 µM (inactive) | 18.7 µM (inactive) |
| CCOC(=O)/C(C#N)=C/c1ccc(SCc2ccco2)c([N+](=O)[O-])c1 | > 100 µM (inactive) | > 100 µM (inactive) | > 100 µM (inactive) | > 100 µM (inactive) | > 100 µM (inactive) | > 100 µM (inactive) | > 100 µM (inactive) | > 100 µM (inactive) | > 100 µM (inactive) | > 100 µM (inactive) | > 100 µM (inactive) | > 100 µM (inactive) | > 100 µM (inactive) | > 100 µM (inactive) | > 100 µM (inactive) | > 100 µM (inactive) | > 100 µM (inactive) | > 100 µM (inactive) | > 100 µM (inactive) | > 100 µM (inactive) |
| CC(C)NC(=O)CN1CCN(C2=C(Cl)C(=O)c3c(O)ccc(O)c3C2=O)CC1 | 0.293 µM (active) | 0.546 µM (active) | 8.13 µM (inactive) | 3.31 µM (inactive) | 1.26 µM (inactive) | 1.49 µM (inactive) | 3.46 µM (inactive) | 2.38 µM (inactive) | 1.99 µM (inactive) | 21.5 µM (inactive) | 1.46 µM (inactive) | 1.71 µM (inactive) | 1.2 µM (inactive) | 1.03 µM (active) | 1.04 µM (active) | 1.54 µM (inactive) | 7.45 µM (inactive) | 0.341 µM (active) | 2 µM (inactive) | 6.5 µM (inactive) |
| OCc1ccc2c(c1)CC1(C2)Cc2cc3c(cc2C1)CCC3 | 2.74 µM (inactive) | 1.77 µM (inactive) | 8.47 µM (inactive) | 2.99 µM (inactive) | 2.22 µM (inactive) | 2.5 µM (inactive) | 2.26 µM (inactive) | 2.9 µM (inactive) | 2.76 µM (inactive) | 22.4 µM (inactive) | 3.27 µM (inactive) | 17.4 µM (inactive) | 3.72 µM (inactive) | 4.97 µM (inactive) | 4.71 µM (inactive) | 2.58 µM (inactive) | 4.7 µM (inactive) | 0.585 µM (active) | 2.3 µM (inactive) | 1.9 µM (inactive) |
| O=c1cc(-c2ccccc2)oc2ccc(Cl)cc12 [6-CHLOROFLAVONE] | > 77.8 µM (inactive) | > 92.7 µM (inactive) | > 100 µM (inactive) | 37.7 µM (inactive) | > 100 µM (inactive) | 20.7 µM (inactive) | 26.8 µM (inactive) | 57.4 µM (inactive) | > 73.5 µM (inactive) | > 84.7 µM (inactive) | 65.5 µM (inactive) | > 44.3 µM (inactive) | 46.6 µM (inactive) | 37.4 µM (inactive) | 56.9 µM (inactive) | 31.4 µM (inactive) | 44.7 µM (inactive) | > 74.6 µM (inactive) | > 100 µM (inactive) | > 64.7 µM (inactive) |
| O=NN(CCCl)C(=O)NC1CCCCC1 [LOMUSTINE] | 13 µM (inactive) | 27.7 µM (inactive) | 51.6 µM (inactive) | 31.6 µM (inactive) | 53.8 µM (inactive) | 35.5 µM (inactive) | 37.2 µM (inactive) | 51.3 µM (inactive) | 16.9 µM (inactive) | 64.4 µM (inactive) | 41 µM (inactive) | 61.4 µM (inactive) | 38.8 µM (inactive) | 84.1 µM (inactive) | 57.8 µM (inactive) | 35.3 µM (inactive) | 61.7 µM (inactive) | 22 µM (inactive) | 54.7 µM (inactive) | 71.4 µM (inactive) |
